This is an account of results in US7135466B2 (Kirin Beer Kabushiki Kaisha, priority 1999, dated 2006).

The target in one assay is T1, c-kit (Homo sapiens, UniProt P10721).
T1 construct: MO7e (human megakaryocytic leukemia cell line) which had been arrested for 20 hr; endogenous in cells; host or cells: MO7e human megakaryocytic leukemia cell line
T1 sequence (P10721 26-976): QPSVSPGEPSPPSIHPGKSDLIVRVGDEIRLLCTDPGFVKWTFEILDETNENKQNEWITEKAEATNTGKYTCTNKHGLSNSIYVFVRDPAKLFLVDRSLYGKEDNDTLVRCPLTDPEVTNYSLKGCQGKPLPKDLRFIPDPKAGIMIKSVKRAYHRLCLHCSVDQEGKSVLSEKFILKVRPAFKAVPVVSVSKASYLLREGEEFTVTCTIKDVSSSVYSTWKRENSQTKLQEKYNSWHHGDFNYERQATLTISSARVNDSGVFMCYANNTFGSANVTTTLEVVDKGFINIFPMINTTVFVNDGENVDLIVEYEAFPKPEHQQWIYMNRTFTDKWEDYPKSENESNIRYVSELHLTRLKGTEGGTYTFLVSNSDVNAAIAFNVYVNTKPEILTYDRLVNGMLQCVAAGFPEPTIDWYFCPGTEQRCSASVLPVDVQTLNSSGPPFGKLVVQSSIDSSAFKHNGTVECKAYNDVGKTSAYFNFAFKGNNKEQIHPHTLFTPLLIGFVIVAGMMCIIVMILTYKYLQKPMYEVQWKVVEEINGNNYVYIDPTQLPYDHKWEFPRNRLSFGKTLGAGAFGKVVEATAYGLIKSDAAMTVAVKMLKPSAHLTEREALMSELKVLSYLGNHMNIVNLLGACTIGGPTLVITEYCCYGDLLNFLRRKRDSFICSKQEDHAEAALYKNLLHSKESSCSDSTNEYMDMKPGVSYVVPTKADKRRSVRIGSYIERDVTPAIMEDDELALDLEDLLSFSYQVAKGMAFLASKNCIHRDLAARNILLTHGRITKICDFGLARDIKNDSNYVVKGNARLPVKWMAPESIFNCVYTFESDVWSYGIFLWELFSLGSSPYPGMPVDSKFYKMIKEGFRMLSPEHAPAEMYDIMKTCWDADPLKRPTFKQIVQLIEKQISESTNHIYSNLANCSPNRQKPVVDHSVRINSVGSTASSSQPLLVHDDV
Description: Inhibitory activity against c-kit autophosphorylation (MO7e cells, h-SCF). Type of assay: cell-based. The note with it: MO7e cells, h-SCF stimulation; read-out: c-kit IC50. A digest of the protocol:
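First, human megakaryocytic leukemia MO7e cells arrested 20 hr receive compound for one hour. Second, SCF stimulation (50 ng/ml) runs 5 min, after which cells are solubilized. Third, tyrosine-phosphorylated c-kit in the lysate is quantified by sandwich ELISA with absorbance at 450 nm.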
The term IC50 denotes the concentration that inhibits the measured activity by half. With `COc1cc2ncnc(Oc3ccc(SCCCCOc4ccccc4F)cc3)c2cc1OC` [Example 848, 4-(4-{[4-(2-Fluorophenoxy)butyl]sulfanyl}phenoxy)-6,7-dimethoxyquinazoline], the IC50 was 943 nM.
Regarding `COc1cc2ncnc(Oc3ccc(SCCOc4ccccc4F)cc3)c2cc1OC` [Example 849, 4-(4-{[2-(2-Fluorophenoxy)ethyl]sulfanyl}phenoxy)-6,7-dimethoxyquinazoline], the IC50 is 760 nM.
Still for that read-out and setting: the same measure for `COc1cc2ncnc(Oc3ccc(SCCOc4cccc(C)c4)cc3)c2cc1OC` [Example 850, 6,7-Dimethoxy-4-(4-{[2-(3-methylphenoxy)ethyl]sulfanyl}phenoxy)quinazoline]: 278 nM.
Still for that read-out and setting: as for `COc1cc2nccc(Oc3ccc(NCCOc4ccc(Cl)cc4Cl)cc3)c2cc1OC` [Example 851, N-[2-(2,4-Dichlorophenoxy)ethyl]-N-{4-[(6,7-dimethoxy-4-quinolyl)oxy]phenyl}amine], the figure is 75 nM; as for `COc1cc2nccc(Oc3ccc(NCCOc4ccccc4C)cc3)c2cc1OC` [Example 852, N-{4-[(6,7-Dimethoxy-4-quinolyl)oxy]phenyl}-N-[2-(2-methylphenoxy)ethyl]amine], 179 nM.
The same measure, in the same setting: as for `COc1cc2nccc(Oc3ccc(NCCOc4ccccc4OC)cc3)c2cc1OC` [Example 853, N-{4-[(6,7-Dimethoxy-4-quinolyl)oxy]phenyl}-N-[2-(2-methoxyphenoxy)ethyl]amine], the figure is 102 nM; as for `COc1cc2nccc(Oc3ccc(NCCOc4c(Cl)cccc4Cl)cc3)c2cc1OC` [Example 854, N-[2-(2,6-Dichlorophenoxy)ethyl]-N-{4-[(6,7-dimethoxy-4-quinolyl)oxy]phenyl}amine], 313 nM; as for `COc1cc2nccc(Oc3ccc(NCCOc4c(C)cccc4C)cc3)c2cc1OC` [Example 855, N-{4-[(6,7-Dimethoxy-4-quinolyl)oxy]phenyl}-N-[2-(2,6-dimethylphenoxy)ethyl]amine], 399 nM.
Regarding `COc1cc2nccc(Oc3ccc(NCCOc4c(OC)cccc4OC)cc3)c2cc1OC` [Example 856, N-[2-(2,6-Dimethoxyphenoxy)ethyl]-N-{4-[(6,7-dimethoxy-4-quinolyl)oxy]phenyl}amine], the IC50 is 255 nM.
Still for that read-out and setting: the same measure for `COc1cc2nccc(Oc3ccc(NCCOc4c(F)cccc4F)cc3)c2cc1OC` [Example 857, N-[2-(2,6-Difluorophenoxy)ethyl]-N-{4-[(6,7-dimethoxy-4-quinolyl)oxy]phenyl}amine]: 195 nM.
Same read-out and setting: the same measure for `COc1cc2nccc(Oc3ccc(NCCOc4cc(C)cc(C)c4)cc3)c2cc1OC` [Example 858, N-{4-[(6,7-Dimethoxy-4-quinolyl)oxy]-phenyl}-N-[2-(3,5-dimethylphenoxy)ethyl]amine]: 102 nM; for `COc1cc2nccc(Oc3ccc(NCCOc4ccc(Cl)cc4)cc3)c2cc1OC` [Example 859, N-[2-(4-Chlorophenoxy)ethyl]-N-{4-[(6,7-dimethoxy-4-quinolyl)oxy]phenyl}amine]: 130 nM.
Still for that read-out and setting: the same measure for `COc1cc2nccc(Oc3ccc(NCCOc4cccc(Cl)c4)cc3)c2cc1OC` [Example 860, N-[2-(3-Chlorophenoxy)ethyl]-N-{4-[(6,7-dimethoxy-4-quinolyl)oxy]phenyl}amine]: 75 nM; for `CCc1ccccc1OCCNc1ccc(Oc2ccnc3cc(OC)c(OC)cc23)cc1` [Example 861, N-{4-[(6,7-Dimethoxy-4-quinolyl)oxy]phenyl}-N-[2-(2-ethylphenoxy)ethyl]amine]: 132 nM; for `COc1cc2ncnc(Oc3ccc(NCCOc4ccccc4C)cc3)c2cc1OC` [Example 862, N-{4-[(6,7-Dimethoxy-4-quinazolinyl)oxy]phenyl}-N-[2-(2-methylphenoxy)ethyl]amine]: 933 nM.
In the case of `COc1ccc(OCCNc2ccc(Oc3ccnc4cc(OC)c(OC)cc34)cc2)cc1` [Example 863, N-{4-[(6,7-Dimethoxy-4-quinolyl)oxy]phenyl}-N-[2-(4-methoxyphenoxy)ethyl]amine], the IC50 came to 31 nM.
As to `CCc1ccc(OCCNc2ccc(Oc3ccnc4cc(OC)c(OC)cc34)cc2)cc1` [Example 864, N-{4-[(6,7-Dimethoxy-4-quinolyl)oxy]phenyl}-N-[2-(4-ethylphenoxy)ethyl]amine], the IC50 was 32 nM.
Same read-out and setting: as for `COc1cc2nccc(Oc3ccc(NCCOc4cc(Cl)ccc4Cl)cc3)c2cc1OC` [Example 865, N-[2-(2,5-Dichlorophenoxy)ethyl]-N-{4-[(6,7-dimethoxy-4-quinolyl)oxy]phenyl}amine], the figure is 121 nM; as for `COc1cc2nccc(Oc3ccc(NCCOc4ccc(F)cc4)cc3)c2cc1OC` [Example 866, N-{4-[(6,7-Dimethoxy-4-quinolyl)oxy]phenyl}-N-[2-(4-fluorophenoxy)ethyl]amine], 126 nM; as for `COc1cc2nccc(Oc3ccc(N(C)CCOc4ccc(F)cc4)cc3)c2cc1OC` [Example 867, N-{4-[(6,7-Dimethoxy-4-quinolyl)oxy]phenyl}-N-[2-(4-fluorophenoxy)ethyl]-N-methylamine], 191 nM.
The same measure, in the same setting: as for `COc1cc2nccc(Oc3ccc(NCCOc4ccccc4Cl)cc3)c2cc1OC` [Example 868, N-[2-(2-Chlorophenoxy)ethyl]-N-{4-[(6,7-dimethoxy-4-quinolyl)oxy]phenyl}amine], the figure is 70 nM; as for `COc1cc2nccc(Oc3ccc(NCCOc4ccccc4)cc3)c2cc1OC` [Example 869, N-{4-[(6,7-Dimethoxy-4-quinolyl)oxy]phenyl}-N-(2-phenoxyethyl)amine], 80 nM; as for `COc1cc2nccc(Oc3ccc(NCCOc4ccc(C)cc4)cc3)c2cc1OC` [Example 870, N-{4-[(6,7-Dimethoxy-4-quinolyl)oxy]phenyl}-N-[2-(4-methylphenoxy)ethyl]amine], 48 nM.
On the same count and under the same terms, as for `COc1cc2nccc(Oc3ccc(NCCOc4cccc(C)c4)cc3)c2cc1OC` [Example 871, N-{4-[(6,7-Dimethoxy-4-quinolyl)oxy]phenyl}-N-[2-(3-methylphenoxy)ethyl]amine], the figure is 43 nM; as for `COc1cc2nccc(Oc3ccc(NCCOc4ccccc4O)cc3)c2cc1OC` [Example 872, 2-(2-{4-[(6,7-Dimethoxy-4-quinolyl)oxy]anilino}ethoxy)phenol], 32 nM.
Take `COc1cc2ncnc(Oc3ccc(NCCOc4ccccc4)cc3)c2cc1OC` [Example 873, N-{4-[(6,7-Dimethoxy-4-quinazolinyl)oxy]phenyl}-N-(2-phenoxyethyl)amine]: the IC50 came to 69 nM.
`COc1cc2ncnc(Oc3ccc(NCCOc4ccccc4O)cc3)c2cc1OC` [Example 874, 2-(2-{4-[(6,7-Dimethoxy-4-quinazolinyl)oxy]anilino}ethoxy)phenol]: the IC50 came to 151 nM.
The same measure, in the same setting: as for `COc1cc2nccc(Oc3ccc(NCCOc4ccccc4)cc3C)c2cc1OC` [Example 875, N-{4-[(6,7-Dimethoxy-4-quinolyl)oxy]-3-methylphenyl}-N-(2-phenoxyethyl)amine], the figure is 115 nM; as for `COc1cc2nccc(Oc3ccc(NCCOc4ccccc4C)cc3C)c2cc1OC` [Example 876, N-{4-[(6,7-Dimethoxy-4-quinolyl)oxy]-3-methylphenyl}-N-[2-(2-methylphenoxy)ethyl]amine], 242 nM; as for `COc1cc2nccc(Oc3ccc(NCCOc4ccccc4Cl)cc3C)c2cc1OC` [Example 877, N-[2-(2-Chlorophenoxy)ethyl]-N-{4-[(6,7-dimethoxy-4-quinolyl)oxy]-3-methylphenyl}amine], 219 nM.
Same read-out and setting: as for `COc1cc2nccc(Oc3ccc(NC(=S)NC(=O)c4ccccc4)cc3)c2cc1OC` [Example 897, N-Benzoyl-N′-{4-[(6,7-dimethoxy-4-quinolyl)oxy]phenyl}thiourea], the figure is 938 nM; as for `COc1cc2nccc(Oc3ccc(NC(=S)NC(=O)c4ccccc4Cl)cc3)c2cc1OC` [Example 898, N-(2-Chlorobenzoyl)-N′-{4-[(6,7-dimethoxy-4-quinolyl)oxy]phenyl}thiourea], 637 nM; as for `COc1cc2nccc(Oc3ccc(NC(=S)NC(=O)c4ccccc4Br)cc3)c2cc1OC` [Example 900, N-(2-Bromobenzoyl)-N′-{4-[(6,7-dimethoxy-4-quinolyl)oxy]phenyl}thiourea], 372 nM.
Still for that read-out and setting: as for `COc1cc2nccc(Oc3ccc(NC(=S)NC(=O)c4ccccc4C(F)(F)F)cc3)c2cc1OC` [Example 902, N-{4-[(6,7-Dimethoxy-4-quinolyl)oxy]phenyl}-N′-[2-(trifluoromethyl)benzoyl]thiourea], the figure is 299 nM.

The same assay, now with this note: Mo7e, figure in parentheses in −( ); at 1000 nM.
As usually defined, the inhibition is the share of the control response that was lost under treatment. As to `COc1cc2ncnc(Oc3ccc(SCCCCOc4cccc(C)c4)cc3)c2cc1OC` [Example 847, 6,7-Dimethoxy-4-(4-{[4-(3-methylphenoxy)butyl]sulfanyl}phenoxy)quinazoline], the inhibition at 1 µM was 9%.
Still for that read-out and setting: the same measure for `COc1cc2nccc(Oc3ccc(NC(=S)NC(=O)c4ccccc4OC)cc3)c2cc1OC` [Example 901, N-{4-[(6,7-Dimethoxy-4-quinolyl)oxy]phenyl}-N′-(2-methoxybenzoyl)thiourea]: 27%; for `COc1cc2nccc(Oc3ccc(NC(=S)NC(=O)c4ccccc4)c(F)c3)c2cc1OC` [Example 903, N-Benzoyl-N′-{4-[(6,7-dimethoxy-4-quinolyl)oxy]-2-fluorophenyl}thiourea]: 34%; for `COc1cc2nccc(Oc3ccc(NC(=S)NC(=O)c4ccccc4C)c(F)c3)c2cc1OC` [Example 904, N-{4-[(6,7-Dimethoxy-4-quinolyl)oxy]-2-fluorophenyl}-N′-(2-methylbenzoyl)thiourea]: 46%.
In the case of `COc1cc2nccc(Oc3ccc(NC(=S)NC(=O)c4ccccc4F)c(F)c3)c2cc1OC` [Example 906, N-{4-[(6,7-Dimethoxy-4-quinolyl)oxy]-2-fluorophenyl}-N′-(2-fluorobenzoyl)thiourea], the inhibition at 1 µM turned out to be 29%.
